This is an account of results in ChEMBL document CHEMBL4428024, “Targeting the Bacterial Division Protein FtsZ” (J Med Chem, 2016).

In brackets after ≈: the same amount, converted by molar mass.

In one assay the test system is Bacillus subtilis. The assay is described as follows: Antimicrobial activity against Bacillus subtilis. Type of assay: functional.
The test system of assay [1] is Staphylococcus aureus. Kind of assay: Antimicrobial activity against Staphylococcus aureus. Type of assay: functional.
In the next assay the test system is Enterococcus faecalis. Kind of assay: Antimicrobial activity against Enterococcus faecalis. Type of assay: functional.
Assay [2] in a line: Inhibition of ZipA-FtsZ protein-protein interaction (unknown origin) assessed as reduction in binding of fluorescein-labeled analogue of FtsZ C-terminal residues (367 to 383 residues) to C-terminal domain of ZipA (185 to 328 residues) by fluorescence polarization assay. Background: In fluorescence polarisation assays a small probe gives low polarisation when free and higher when bound to something large.

In assay [3] the target is T1, Cell division protein FtsZ (Staphylococcus aureus) (UniProt P0A031).
T1 sequence (whole entry): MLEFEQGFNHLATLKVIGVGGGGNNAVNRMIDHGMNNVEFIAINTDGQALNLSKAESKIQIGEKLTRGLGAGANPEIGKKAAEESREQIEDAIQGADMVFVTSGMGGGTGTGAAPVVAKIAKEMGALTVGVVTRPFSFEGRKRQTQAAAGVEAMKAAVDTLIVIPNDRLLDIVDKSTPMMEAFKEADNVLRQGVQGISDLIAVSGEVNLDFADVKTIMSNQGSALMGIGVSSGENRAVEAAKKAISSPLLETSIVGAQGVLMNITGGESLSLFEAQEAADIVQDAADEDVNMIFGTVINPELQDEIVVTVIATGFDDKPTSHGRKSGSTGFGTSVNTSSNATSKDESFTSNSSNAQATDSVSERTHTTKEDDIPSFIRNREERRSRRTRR
Kind of assay: Activation of Staphylococcus aureus FtsZ assessed as increase in GTPase activity by malachite green assay.

Assay [4] concerns the target T2, Cell division protein FtsZ (Escherichia coli K-12) (UniProt P0A9A6).
T2 sequence (whole entry): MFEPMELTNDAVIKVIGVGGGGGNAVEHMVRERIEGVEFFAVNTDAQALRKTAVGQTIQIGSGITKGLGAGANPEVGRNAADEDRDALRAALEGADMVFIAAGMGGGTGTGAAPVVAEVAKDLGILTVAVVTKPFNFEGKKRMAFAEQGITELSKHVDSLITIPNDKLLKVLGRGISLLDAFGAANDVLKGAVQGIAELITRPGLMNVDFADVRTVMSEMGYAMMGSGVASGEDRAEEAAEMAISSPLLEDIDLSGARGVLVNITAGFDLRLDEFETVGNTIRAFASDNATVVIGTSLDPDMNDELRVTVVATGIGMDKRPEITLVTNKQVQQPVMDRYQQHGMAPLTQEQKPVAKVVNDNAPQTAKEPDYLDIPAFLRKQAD
The assay is described as follows: Inhibition of Escherichia coli FtsZ assessed as reduction in polymerization.

A further assay has as its system Escherichia coli. The assay is described as follows: Antimicrobial activity against Escherichia coli. Type of assay: functional.
In assay [5] the test system is Staphylococcus aureus. Kind of assay: Antimicrobial activity against methicillin resistant Staphylococcus aureus. Type of assay: functional.
Assay [6] concerns the target T3, Cell division protein FtsZ (Mycobacterium tuberculosis) (UniProt P9WN95).
T3 sequence (whole entry): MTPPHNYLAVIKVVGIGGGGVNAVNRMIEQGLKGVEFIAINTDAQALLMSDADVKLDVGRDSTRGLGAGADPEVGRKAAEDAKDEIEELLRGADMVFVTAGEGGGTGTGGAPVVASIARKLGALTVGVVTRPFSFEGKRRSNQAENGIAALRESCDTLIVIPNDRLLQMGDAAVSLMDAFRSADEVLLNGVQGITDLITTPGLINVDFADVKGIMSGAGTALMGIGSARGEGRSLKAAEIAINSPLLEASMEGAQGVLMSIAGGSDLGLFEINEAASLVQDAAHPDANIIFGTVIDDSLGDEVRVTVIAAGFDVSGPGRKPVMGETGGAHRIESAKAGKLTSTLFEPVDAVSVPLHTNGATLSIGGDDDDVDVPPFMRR
The assay is described as follows: Inhibition of Mycobacterium tuberculosis FtsZ assessed as reduction in GTPase activity by malachite green assay.

Assay [7] deals with T3, Cell division protein FtsZ (Mycobacterium tuberculosis). Kind of assay: Inhibition of Mycobacterium tuberculosis FtsZ assessed as reduction in GTPase activity by coupled enzyme assay.
For assay [8], the target named is T2, Cell division protein FtsZ (Escherichia coli K-12). Kind of assay: Inhibition of Escherichia coli FtsZ assessed as reduction in GTPase activity by coupled enzyme assay.
For assay [9] the target is unchanged. Kind of assay: Inhibition of Escherichia coli FtsZ assessed as reduction in GTPase activity by malachite green assay.
Assay [10] shares this target.
Description: Binding affinity to Escherichia coli FtsZ
Assay [11] addresses T4, Cell division protein FtsZ (Bacillus subtilis) (UniProt A5Z1V5).
T4 sequence (whole entry): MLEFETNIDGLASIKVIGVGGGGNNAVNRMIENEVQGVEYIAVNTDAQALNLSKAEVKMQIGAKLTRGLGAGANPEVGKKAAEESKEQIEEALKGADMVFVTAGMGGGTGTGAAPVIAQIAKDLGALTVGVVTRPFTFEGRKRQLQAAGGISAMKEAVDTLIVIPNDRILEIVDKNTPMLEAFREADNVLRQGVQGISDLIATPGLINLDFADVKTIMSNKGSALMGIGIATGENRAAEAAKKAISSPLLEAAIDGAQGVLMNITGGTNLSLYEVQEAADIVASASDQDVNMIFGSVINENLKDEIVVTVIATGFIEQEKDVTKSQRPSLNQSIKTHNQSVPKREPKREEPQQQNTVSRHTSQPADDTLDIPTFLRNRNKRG
The assay is described as follows: Inhibition of Bacillus subtilis FtsZ assessed as reduction in GTPase activity by malachite green assay.

The test system of assay [12] is Mycolicibacterium smegmatis. The assay is described as follows: Antimicrobial activity against Mycobacterium smegmatis. Type of assay: functional.
Assay [13] addresses T1, Cell division protein FtsZ (Staphylococcus aureus). The assay is described as follows: Inhibition of Staphylococcus aureus FtsZ assessed as reduction in GTPase activity by coupled enzyme assay.
Assay [14] addresses T5, Cell division protein FtsZ (Escherichia coli K-12, UniProt P0A9A6).
T5 sequence (P0A9A6 whole entry): T2 sequence (whole entry)
The assay is described as follows: Displacement of bis-ANS from Escherichia coli FtsZ.

Consider `O=C(O)c1ccc(-c2cccc(-c3c(-c4ccccc4)[nH]c4ccccc34)c2)cc1`, for which the results for the MIC with Bacillus subtilis, in the assay with Staphylococcus aureus [1] and in the assay with Enterococcus faecalis were 4 µg/mL (≈ 10.3 µM), 4 to 8 µg/mL and 8 to 16 µg/mL, respectively. Besides, the IC50 – broadly, the midpoint of a concentration-inhibition curve – in assay [2] was found to be 192 µM.

Regarding `NC(=O)c1c(F)ccc(OCc2nc3cc(Cl)cnc3s2)c1F`, the MIC – broadly, the smallest concentration in the dilution series that meets the test's criterion for growth inhibition – in the assay on Staphylococcus aureus [1] turned out to be 1 µg/mL (≈ 2.81 µM). Also, the Activity in [3] is 0.1 µM.

As to `CCN(CC)CCNc1nc(/C=C/c2ccc(Cl)cc2)nc2cc3ccccc3cc12`, the IC50 in assay [4] and in assay [8] was 15 µM in each case. Also, the values for the MIC with Bacillus subtilis and against Escherichia coli were 1.08 µg/mL (≈ 2.51 µM) and over 34 µg/mL, respectively. For the same compound, the INH with Staphylococcus aureus [5] is 4.31 µg/mL; in assay [6], 50 µM; in assay [7] it was 50 µM.

As to `O=C/C=C/c1ccccc1` [CINNAMALDEHYDE], the INH in assay [9] was 5.81 µM; in the assay on Bacillus subtilis, 500 mg/L; with Staphylococcus aureus [1] it was 250 mg/L; in the assay on Escherichia coli it was 1000 mg/L. In assay [10], this compound had a Ka of 1 µM.

Consider `Oc1cc(O)c2c(c1)C/C(Cl)=C\Cc1cc(c(Cl)cc1O)Oc1c(O)cc(cc1O)C/C(Cl)=C\Cc1cc(c(Cl)cc1O)O2`, for which the INH in assay [9] worked out at 9.88 µM; in the assay with Staphylococcus aureus [5] it was 1.5 µg/mL. In addition, the MIC against Staphylococcus aureus [1] came to 1.8 µg/mL (≈ 2.65 µM).

Regarding `CC(=O)O[C@@]12CO[C@@H]1C[C@H](O)[C@@]1(C)C(=O)[C@H](O)C3=C(C)[C@@H](OC(=O)/C=C/c4ccc5ccccc5c4)C[C@@](O)([C@@H](OC(=O)c4ccccc4)[C@H]21)C3(C)C`, the INH was 38 µM in the assay on Bacillus subtilis, 35 µM in [11] and 60 µM in [12].

Take `CCC(CC)c1cc([C@H]2CN3CC[C@H]2C[C@@H]3CN)nc(-c2ccncc2)n1`: the values for the MIC with Staphylococcus aureus [1] and against Escherichia coli were 6.53 µg/mL (≈ 17.9 µM) and 13.1 µg/mL (≈ 35.8 µM), respectively. Moreover, in assay [13], the INH came to 37.5 µM.

Consider `COc1ccc2cc3[n+](cc2c1OC)CCc1cc2c(cc1-3)OCO2.[Cl-]` [BERBERINE CHLORIDE], for which the IC50 in assay [4] came out at 10 µM. Further, the INH was 16 µM in assay [9] and over 400 µM in the assay on Escherichia coli. Also, the MIC against Bacillus subtilis is 100 µg/mL; against Staphylococcus aureus [1] it was 32 to 128 µg/mL. Besides, binding in assay [14] was put at a Kd of 0.023 µM.
